Laboratory results taken from patent US20230172914A1, “BIOMARKER-BASED THERAPEUTIC COMPOSITION” (WELLMARKER BIO CO., LTD., priority 2019, published 2023).

Tests used:
[1] = tested on: colon cancer patient-derived cancer tissue (RON mutant: Δ160); experiment: Efficacy in animal model transplanted with colon cancer patient tissue, 50 mpk; assay type: in vivo, BALB/c nude mice; conditions: 50 mpk oral, daily for 4 weeks
Procedure: 5-week-old female BALB/c nude mice were purchased and acclimatized for 1 week. Then, colon cancer patient-derived cancer tissue was transplanted into the right dorsal side of the mice. Example 18 was orally administered when the tumor reached a size of about 100 mm^3. The drug was administered once a day for 4 weeks, and tumor size and body weight were measured twice a week to perform comparative analysis. After completion of the drug administration, the experimental animals were euthanized, and then the tumors were extracted and weighed to perform comparative analysis.
As a result, it was identifiable that tumor growth is inhibited in a case where Example 18 is administered to an animal model (RON mutant: Δ160) into which tumor cells in colon cancer patients have been transplanted. The drug was orally administered on a daily basis, and the dose used was 50 mpk. As a result of drug administration for 4 weeks, it was identified that tumor growth is inhibited by 80% or more (FIG. 18). In addition, after completion of the drug administration, the tumor tissues were extracted and weighed to perform comparative analysis. […] The lower pictures of FIG. 19 show tumors extracted from representative individuals of the respective groups.

[2] = tested on: RON mutant (Δ155); experiment: Kinase assay for RON mutant Δ155 in transfected Colo320HSR (immunoprecipitation, Western blotting); assay type: cell-based; conditions: Colo320HSR transfected with RONΔ155, 2 hours of drug treatment
Procedure: As a way capable of replacing RON mutant, each of the mutants (Δ160, Δ155) was transfected into Colo320HSR, a RON-negative cell line, and the cell line was subjected to treatment with Example 18 or Comparative Example 1 at respective concentrations. Then, it was checked, through immunoprecipitation and Western blotting, whether expression of active RON decreases. The detailed method is as follows. The RON-negative Colo320SHR colon cancer cell line was transfected with 12 ug of each of RONΔ160 and RON Δ155 using lipofectamine 2000 (Invitrogen, cat #11668-019). For the same transfection efficiency, after 24 hours, the transformed strains were dispensed into a 60-mm dish. 48 hours after transfection, treatment with drugs of Comparative Example 1 and Example 18 was performed, respectively, in a dose-dependent manner. After 2 hours of drug treatment, the cells were collected and washed with PBS. Then, the washed cells were lysed with RIPA Lysis Buffer (T&I, cat #BRI-9001).
Protein concentrations were quantified using the Bradford (BioRad, cat #5000205) method. […]
Electrophoresis was performed using SDS-PAGE, and then proteins were transferred to PVDF membrane. […] The developed film was analyzed with densitometry using Image-J, and then IC50 was calculated using Graphpad Prism (GraphPad Software, Inc.).

[3] = tested on: KM12C cell line carrying RON mutant (Δ160); experiment: Action mechanism in KM12C, Western blotting of related proteins; assay type: cell-based, human; conditions: 1 μM, 5 μM, 48 hours
Procedure: KM12C cell line was seeded at 5×10^5 cells onto a 100-mm plate. Then, after 24 hours, the cells were subjected to treatment with Example 18 at respective concentrations (1 μM, 5 μM) for 48 hours. After 48 hours, the cells and cell suspensions were collected (1,500 rpm, 3 minutes), and changes in expression of related proteins were checked with Western blotting. RIPA Lysis Buffer (T&I) was added to the respective cells so as to achieve lysis. Then, BCA kit (Pierce) was used to quantify proteins. Then, the proteins were loaded onto 8% SDS-polyacrylamide, and electrophoresis was performed at 125 V.
Then, blocking was performed with 5% non-fat skim milk-TBST solution for 1 hour. Subsequently, the proteins were reacted with primary antibodies, which were diluted 1:1,000 in 5% non-fat skim milk-TBST solution, at 4° C. for 24 hours or 48 hours. Then, washing with TBST was performed three times. The resultant was reacted with anti-rabbit and anti-mouse IgG conjugated HRP secondary antibodies, which were diluted at 1:1,000, at room temperature for 2 hours. Then, washing with TBST was performed three times. Subsequently, the membrane was treated with the ECL solution (GE Healthcare), and developed by exposure to an X-ray film. Then, the bands were checked.

[4] = tested on: KM12C cell line (active RON/RON mutant (Δ160)) tumor; experiment: Tumor growth inhibition in animal model transplanted with KM12C (Experimental Example 10); assay type: in vivo, BALB/c nude mice
Procedure: 5-Week-old female BALB/c nude mice were purchased and acclimatized for 1 week. Then, human-derived colon cancer cell line KM12C (1.5×10^6 cells/mice) (cell line expressing active RON/RON mutant (Δ160)) was diluted in PBS, and injected subcutaneously (100 μl) into the right dorsal side of the mice. Comparative Examples 1 and Example 18 were orally administered when the tumor reached a size of about 100 mm^3. The drug was administered once a day for 2 weeks, and tumor size and body weight were measured twice a week. […] In addition, after completion of the drug administration, the experimental animals were euthanized, and then the tumors were extracted and weighed.
In addition, a portion of the extracted tumor tissue was fixed with 10% formalin, and then a paraffin block was produced therefrom. Then, changes in expression of each protein were checked through immunochemical staining. As a result, it was identified that in the group having received Example 18, expression of the active RON and p-ERK decreases, whereas expression of cleaved caspase 3 is induced (FIG. 11). Tumor tissues were collected from the vehicle group and the 5 mpk (mg/kg) treatment group, and changes in protein expression were compared through Western blotting.

[5] = 5 mpk (mg/kg) treatment group vs vehicle

SMILES: CCOc1ccn(-c2ccc(F)cc2)c(=O)c1C(=O)Nc1ccc(Oc2ccnc3cc(-c4ccc(CN5CCOCC5)cn4)sc23)c(F)c1.Cl [Example 18, 4-ethoxy-N-[3-fluoro-4-({2-[5-(morpholinomethyl)pyridin-2-yl]thieno[3,2-b]pyridine-7-yl}oxy)phenyl]-1-(4-fluorophenyl)-2-oxo-1,2-dihydropyridine-3-carboxamide hydrochloride]
- tumor growth inhibition (extracted tumor weight) compared with the vehicle [1]: about 83%
- tumor growth inhibition (tumor size) [1]: ≥ 80%
- inhibition of RON activity (degree of active RON) [2]: high inhibition efficacy as compared with Comparative Example 1
- active RON (Western blotting) [3]: decreases
- p-ERK, p-Src, p-Akt, and p-Gab1 (Western blotting) [3]: decrease
- active RON expression level in tumor tissue (Western blotting) [4, 5]: decreased expression level
- cleaved caspase 3 expression level in tumor tissue (Western blotting) [4, 5]: increased expression level
- expression of cleaved caspase 3 in tumor tissue (immunochemical staining) ([4]; extracted tumor tissue): induced
- expression of the active RON and p-ERK in tumor tissue (immunochemical staining) ([4]; extracted tumor tissue): decreases
- change in mouse body weight ([4]; oral, once a day for 2 weeks): no change in mouse body weight
- tumor growth inhibition efficacy (tumor size) ([4]; oral, once a day for 2 weeks): tumor growth inhibition efficacy with drug administration was observed
- tumor weight compared with the vehicle group ([4]; oral, once a day for 2 weeks): decreased tumor weight was observed
